# Assay results from patent US20230121474A1, “STERILIZATION COMPOSITIONS AND METHODS FOR USING THEREOF” (Save Foods Ltd., priority 2020, published 2023).
# Legend:
# [1] = test system: pre-infected lemons (inoculum of homogenized infected lemons); assay: Decay of pre-infected, pricked lemons after sanitizing treatment; assay type: in vivo
# Description: Inoculum preparation: Infected lemons were identified visually and collected under three different lemon trees on Moshav Beit Yitzhak. Ten of the more infected lemons were put into a food processor, diluted with rainwater and homogenized to uniform, grayish brown, slightly viscous liquid consistency.
# They were sent to de-greening from which they were removed on 2nd day. All lemons were pricked in 6 different location on each lemon using a metal nail attached to a rubber stopper which ensured a uniform pricking depth of 1.5 mm on all the lemons. On the same day the liquidized inoculum was prepared as described above and all the lemons were dipped into the “infected” water solution for 30 seconds and allowed to dry at ambient room conditions—temperatures between […].
# On the next day the lemons were treated as per description below to screen the various treatment's efficacy in controlling and preventing decay and spoilage of the pre-infected lemons. All treated lemons were divided and placed in separate cartons and allowed to dry. Disease progress of the lemons was monitored for 7 days with no visible disease symptoms. On day 8 after treatment all cartons were covered with plastic sheeting in order to increase ambient humidity to speed up disease development.
# common fungal pathogen = assay: Decay of clementine infested with fungal pathogen after treatment; assay type: in vivo; conditions: fruits infested at around 10^5 CFU, cold storage 9 to 21 days then room temperature
# Experimental: Additionally, exemplary sanitizing composition (Composition B) was applied on clementine, and the fruit decay was evaluated as compared to only PAA treatment or untreated fruits. The fruits were infested with a common fungal pathogen at a concentration of around 10^5 CFU and inoculated for 16-24 hours before treatment. Following the treatments, the fruits were stored in cold storage for between 9 to 21 days and then stored in room temperature for shelf-life evaluation.
# Listeria = assay: In-vitro antimicrobial activity, edible matter contaminated with bacteria dipped into test solution (CFU reduction); assay type: cell-based; conditions: contact time 60 minutes
# Experimental: The antimicrobial activity of the composition was tested in-vitro. […] The contact time was 60 minutes. The antimicrobial activity was assessed by calculating bacterial viability (e.g. reduction of the CFU).
# [2] = Treatment 3: PAA 50 ppm/PAA 50 ppm, contact time 60 sec
# [3] = Treatment 4: PAA 50 ppm/PAA 50 ppm, contact time 45 sec
# [4] = Treatment 5: PAA 30 ppm, contact time 45 sec
# [5] = acid blend 1:1:1 molar ratio with oxidizing agent, potent = at least 10^5-fold reduction of CFUs
smiles,measurement,setting,value
"CC(=O)OO [PAA, per-acetic acid]",% Infected Lemons 15 DAT,[1]; [2],16.7%
same,% Infected lemons 10 DAT,[1]; [2],0%
same,Infected Lemons 10 DAT,[1]; [2],0
same,Infected Lemons 15 DAT,[1]; [2],2
same,% Infected Lemons 15 DAT,[1]; [3],25%
same,% Infected lemons 10 DAT,[1]; [3],20%
same,Infected Lemons 10 DAT,[1]; [3],3
same,Infected Lemons 15 DAT,[1]; [3],3
same,% Infected Lemons 15 DAT,[1]; [4],40%
same,% Infected lemons 10 DAT,[1]; [4],40%
same,Infected Lemons 10 DAT,[1]; [4],4
same,Infected Lemons 15 DAT,[1]; [4],4
same,decay of clementine,common fungal pathogen,about 20%
OO [hydrogen peroxide],minimum concentration of hydrogen peroxide within the solution,Listeria; [5],200 ppm
same,antimicrobial activity of the oxidizing agent alone,Listeria; without acid blend,"Neither hydrogen peroxide, nor silver/hydrogen peroxide combination showed a significant antimicrobial activity"
CCC(=O)O [propionic acid],concentration of propionic acid within the solution sufficient for antibacterial activity,Listeria; [5],100 ppm
